From patent US12528774B2, “Thiosemicarbazone compounds and uses thereof” (The Regents of the University of California, priority 2019, dated 2026)

Assays:
143 BTK ρ0 cells = test: Viability (trypan blue) and cell cycle in 143 BTK ρ0 cells; assay type: cell-based; conditions: HCT13 + 20 μM Cu(II), 48 hours
Procedure: (§1) FIG. 3A: Mito Stress Test of MIAPACA2 PDAC cells treated with HCT13 (25 nM)+Cu(II) (20 μM) for 24h. FIG. 3B: electron flow assay in isolated mitochondria treated with HCT-13 (100 nM)+Cu(II) (20 μM) for 1h. FIG. 3C: viability of 143 BTK parental (wild type, WT) and ρ0 cells after 48h of the indicated HCT13 concentration+Cu(II) (20 μM) treatment, assessed with Trypan Blue Staining. FIG. 3D: 48h cell cycle histogram and plots of S-phase arrest plots in 143 BTK WT and 143 BTK ρ0 cells at 24, 48 and 72h following treatment with indicated concentrations of HCT13+Cu(II)(20 μM). (mean±SD, n=2, one-way ANOVA corrected for multiple comparisons by Bonferroni adjustment, * P<0.05; ** P<0.01; *** P<0.001).
Another HCT compound, Dp44mT, was reported to increase AMPK expression and induce ROS, although its cytotoxicity was not attributed to the functionality of the mitochondria. (Ref 50). […] Both 143 BTK ρ0 and parental (wild type, WT) cells were treated with HCT13+20 μM Cu(II) for 48 hours, after which cell viability was determined through trypan blue staining (FIG. 3C).
Viability/Apoptosis assay: Viable cells were measured by Trypan blue staining using vi-cell counter (Beckman Coulter, CA, USA). […]
Cell cycle: Cell cycle was assessed using Propidium iodide staining at indicated timepoints. […]

MIAPACA2 cells = test: ROS measurements (CM-H2DCFDA, MitoSOX); assay type: cell-based, human; conditions: 24 h
Procedure: FIGS. 2A-2I. FIG. 2A: representative immunoblots of MIAPACA2 PDAC cells treated as indicated for 24h. FIGS. 2B-2C: reactive oxygen species (ROS) measurement using CM-H2DCFDA staining after HCT13 (25 nM)+Cu(II) (20 μM) treatment for 24h; mean fluorescence intensity (MFI); mean±SD, n=2, Student t-test, ***P<0.001. FIG. 2D-2E: mitochondrial ROS detection using MitoSOX staining in MIAPACA2 PDAC cells treated with HCT-13 (25 nM)+Cu(II) (20 μM) for 24h; mean±SD, n=2, Student t-test, ***P<0.001. FIG. 2F: oxygen consumption rate (OCR) of MIAPACA2 PDAC cells treated with HCT-13 (25 nM)+Cu(II) (20 μM). FIG. 2G: OCR of isolated mitochondria measured with or without HCT-13 (25 nM)+Cu(II) (20 μM). FIG. 2H: viability of 143 BTK parental (wild type, WT) and po cells after 48 h of treatment with the indicated HCT-13 concentrations+Cu(II) (20 μM) treatment, assessed with trypan blue staining; mean±SD, n=2, Student t-test, ***P<0.001. […]
ROS Measurements: Cellular ROS measurement was assayed with CM-H2DCFDA staining after treatment according to manufacturer's instructions (Reactive Oxygen Species (ROS) Detection Reagents, Invitrogen, #D399). […] The samples were analyzed using flow cytometry.
Mitochondrial ROS was measured using MitoSOX staining according to manufacturer's instructions (MitoSOX, Invitrogen, #M36008). […]
ROS Measurements. […] The samples were analyzed using flow cytometry. […]

143 BTK WT cells = test: Cell cycle analysis in 143 BTK WT cells; assay type: cell-based; conditions: HCT13 + Cu(II) 20 μM
Procedure: as §1
Another HCT compound, Dp44mT, was reported to increase AMPK expression and induce ROS, although its cytotoxicity was not attributed to the functionality of the mitochondria. (Ref 50). To determine whether the cytotoxicity of HCT13 was mitochondria-dependent, its effects upon 143 BTK ρ0, an mtDNA-deficient fibroblast cell line, was examined. Both 143 BTK ρ0 and parental (wild type, WT) cells were treated with HCT13+20 μM Cu(II) for 48 hours, after which cell viability was determined through trypan blue staining (FIG. 3C).
Cell cycle: Cell cycle was assessed using Propidium iodide staining at indicated timepoints. Cells were pulsed with EdU 1 h before collection at different time points. […]

With `CN(C)C(=S)N/N=C/c1nccc2cc(F)ccc12` (mixture of isomers) [HCT13, (E)-2-((6-Fluoroisoquinolin-1-yl)methylene)-N,N-dimethylhydrazine-1-carbothioamide and (Z)-2-((6-Fluoroisoquinolin-1-yl)methylene)-N,N-dimethylhydrazine-1-carbothioamide] the “sensitivity of ρ0 cells compared to WT (viability)” value (143 BTK ρ0 cells) was “significantly less sensitive”, the “ROS generation (CM-H2DCFDA staining)” value (MIAPACA2 cells; HCT13 25 nM + Cu(II) 20 μM) was “induced ROS generation” and the “mitochondrial ROS (MitoSOX)” value (MIAPACA2 cells; HCT-13 25 nM + Cu(II) 20 μM) was “also observed in the mitochondria”. For the same compound, the S-phase arrest (143 BTK WT cells) was “marked S-phase arrest”.
